# Tests used:
# [1] = tested on: brain-derived neurotrophic factor (BDNF); test: Serum BDNF by ELISA in TLE rats; type: in vivo; details: TLE control 22.1 ± 1.7, normal group 76.8 ± 6.1
# Experimental: (§1) Temporal lobe epilepsy (TLE) was induced in rats using the pilocarpine model according to the method of Arshad et al.. Prior to the experiment, rats were housed in plastic cages at October University for Modern Science and Arts under controlled environmental conditions (temperatures of 25°±3°C and 50% humidity) with free access to water and softened standard pellet chow. The rats were injected with pilocarpine (300 mg/kg; i.p.) to induce status epilepticus (SE). Atropine (1 mg/kg; i.p.) was injected 30 minutes before pilocarpine injection to antagonize the peripheral muscarinic activity. SE was defined using the modified Racine scale by observing seizure severity categorized as stages 4 and 5. […] The SE seizures were left to last for 3 hours to induce hippocampus damage, after which diazepam (10 mg/kg; i.p.) was injected to attenuate the seizures. Lubricant ophthalmic gel was applied with a cotton swab to each eye to prevent the corneas from drying out during the seizures. The rats were hydrated with sterile Ringer's lactate injections (1 mL, i.p.) for 3 days post-SE induction. […]
# (§2) The serum levels of neuron-specific enolase (NSE), matrix metallopeptidase-9 (MMP-9), neurofilament light polypeptide (NEFL), and brain-derived neurotrophic factor (BDNF) were measured by ELISA technique using the following standard kits CAT no. […]
# brain hippocampus = test: Histopathological examination of the brain hippocampus in TLE rats; type: in vivo; details: H&E, Fig. 12
# Experimental: as §1, with “Arshad” left out, “induction. Animal welfare assessments were conducted multiple times per day for several days after the induction of SE.” for “induction.”
# [2] = parameters: method as in PMID 10837713; details: following systemic absorption; cited from earlier work
# [3] = In vitro drug release, Franz diffusion cell with dialysis bag; type: physicochemical; details: PBS pH 7.4, 37 ± 0.5 °C
# Experimental: The in vitro release study utilized a Franz diffusion cell with a diffusion area of 1.77 cm^2 [44]. The receptor compartment contained 7.5 ml phosphate buffer (PBS) pH 7.4, simulating the pH at the release site in the brain [45, 46], and the system was equilibrated at 37 ± 0.5 °C by a circulating water jacket. […] At certain time intervals (0, 0.25, 0.5, 0.75, 1, 2, 4, 8, 12, 24, 36, 48, and 72 h), 0.5 ml samples were aliquoted from the receptor compartment and replaced with equal volumes of fresh medium to maintain a constant volume. Samples were filtered using a 0.22 μm filter and analyzed spectrophotometrically as previously described. In order to understand the barrier presented by the dialysis membrane, the in vitro release study of unformulated ZNS (free drug) solution in distilled water of the same concentration (1mg/ml w/v) was carried out similarly in a separate setup, all release experiments were done in triplicates, and the release data were fitted to various release kinetic models: zero, first, Higuchi diffusion, and Hixson–Crowell and Korsmeyer–Peppas models.
# [4] = tested on: neurofilament light polypeptide (NEFL); test: Serum NEFL by ELISA in TLE rats; type: in vivo; details: compared to the TLE control rats; intranasal, 7 days
# Experimental: as §1, §2
structure (smiles),measurement,setting,value
"NS(=O)(=O)Cc1noc2ccccc12 [ZNS, Zonisamide]",serum level of BDNF,[1],47.45 ± 1.9 pg/mL
same,"hippocampal histopathology, result in words",brain hippocampus,noticeable neuroprotective efficacy
same,Oldendorf Brain Uptake Index,[2],28%
same,ZNS released in 2 hours,[3],96.9±2.1%
same,decrease in serum level of NEFL,[4],44.6%

# — article PMC13538172, “Zonisamide nanodiamonds for brain targeting: A comprehensive study utilising in silico, in vitro, in vivo, and molecular investigation for successful nose-to-brain delivery for epilepsy management” (Drug Delivery and Translational Research, 2025)
